Patent publication US20250034108A1, “SODIUM CHANNEL BLOCKERS” (NOVARTIS AG, priority 2023, published 2025)

How the values were obtained:
Assay type in all cases: cell-based
human Nav1.5 [1] = target: T1, human Nav1.5 (Homo sapiens (Human), UniProt Q14524); experiment: Qpatch automated patch-clamp, peak Nav1.5 current inhibition, 5-Hz AF-like assay (holding potential -85 mV); conditions: CHO-K1 cells stably expressing human Nav1.5, holding potential -85 mV, Table 5, read-out: Nav1.5 IC50 (5 Hz, AF Rate)
In short: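 CHO-K1 cells stably expressing human Nav1.5, whole-cell automated patch-clamp at room temperature, CsF-based internal. Compounds pre-incubated 3 min each at ascending 0-30 μM; +10 to −85 mV ramp (150 ms) applied at 5 Hz for 12 s from −85 mV holding. IC50 from last-pulse peak current, vehicle-normalized for run-down.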

human Nav1.5 [2] = target: T1, human Nav1.5; experiment: Qpatch automated patch-clamp, peak Nav1.5 current inhibition, 1 Hz sinus rate, ventricular condition (holding potential -100 mV); conditions: CHO-K1 cells stably expressing human Nav1.5, without ATX-II
Source text: (§1) Electrophysiology was used to measure the ionic currents in isolated living cells using automated patch-clamp recording, performed using an automated patch-clamp machine called Qpatch (Sophion Bioscience). Two different assay conditions were used to identify compounds with atrial-selective potential. The 5-Hz AF-like assay has more depolarized holding potential at −85 mV to mimic atrial resting membrane potential (RMP) and was used to identify compounds of strong rate-dependence. Active, rate-dependent compounds were then screened at 1 Hz (i.e., sinus rate) at the holding potential of −100 mV to mimic the ventricular scenario and help identify compounds with the largest potency separation or attenuation from the 5-Hz AF-like assay. Such compounds have the potential for treating AF without the QRS liability inherent to Class Ic drugs.
(§2) The sodium current conducted through a cell (via Nav1.5) or electrical signals were processed through a low-pass filter at 5 KHz, re-digitalized and acquired at 20 kHz. Series resistance was not compensated and leak subtraction was performed.
(§3) 1 to 3 million Chinese Hamster Ovary cells (also known as CHO-K1) stably expressing human Nav1.5 were seeded into […] culture flasks with 25 mL medium (consisting of Gibco Dulbecco's Modified Eagle Medium as a base medium with 1% MEM non-essential amino acids, 400 μg/mL Geneticin, 5 μg/mL puromycin and 10% fetal bovine serum) 48-72 hours prior to the experiments. On the day of the experiment, cells were washed once with phosphate-buffered saline (also known as PBS; Gibco) detached with Detachin™ (Genlantis), and re-suspended in CHO—S-SFM II media (Gibco) at 200,000 cells/mL. The CHO—S-SFM II was replaced with assay solutions prior to the assays. Whole-cell currents were recorded at room temperature in the whole-cell configuration. The external aqueous assay solution (pH=7.4; Osm=307-315) contained the following (the concentration for each component is expressed in parentheses in mM): NaCl (140 mM), KCl (4 mM), CaCl2) (2 mM), MgCl2 (1 mM), 4-(2-hydroxyethyl)-1-piperazineethanesulfonic acid, also known as HEPES (10 mM), and glucose (5 mM). The internal aqueous assay solution (pH=7.2; Osm=292-295) contained the following (the concentration for each component is expressed in parentheses in mM): CsF (110 mM), CsCl (10 mM), NaCl (10 mM), HEPES (10 mM), and ethylene glycolbis(β-aminoethyl ether)-N,N,N′,N′-tetraacetic acid, also known as EGTA (10 mM).
(§4) To assess peak Nav1.5 current inhibition mimicking a ventricular condition at sinus rate with or without ATX-II (Nav1.5 IC50 (1 Hz, ATXII) (μM) or (1 Hz, Sinus Rate) (μM)), compounds were first prepared at 10 mM in DMSO, and cells were pre-incubated with test compounds at each concentration for 3 min. in an ascending order of 0, 0.37, 1.1, 3.3, 10 and 30 uM. In the assay with ATX-II (Alomone Labs), 50 nM ATX-II was included during the 3-min. compound incubation. A square pulse (−10 mV; 400 ms and a holding potential at −100 mV) was run at 1 Hz for 25 s until no further inhibition or Nav1.5 current change was observed. The percent inhibition (expressed as ([Iafter compound treatment/Ibefore compound treatment]×100%) is calculated by normalizing the peak current amplitude at the last pulse of each of the 6 compound concentrations by the amplitude before exposure to the test compound. The compiled data was further normalized by vehicle control (DMSO) to account for Nav1.5 current run-down, and IC50 was calculated by Matlab (MathWorks, USA).

human Nav1.5 [3] = target: T1, human Nav1.5; experiment: Qpatch automated patch-clamp, peak Nav1.5 current inhibition, 1 Hz with 50 nM ATX-II (holding potential -100 mV); conditions: CHO-K1 cells stably expressing human Nav1.5, read-out: Nav1.5 IC50 (1 Hz, ATXII)
Source text: as §1, §2, §3, §4

T1 sequence (Q14524 whole entry): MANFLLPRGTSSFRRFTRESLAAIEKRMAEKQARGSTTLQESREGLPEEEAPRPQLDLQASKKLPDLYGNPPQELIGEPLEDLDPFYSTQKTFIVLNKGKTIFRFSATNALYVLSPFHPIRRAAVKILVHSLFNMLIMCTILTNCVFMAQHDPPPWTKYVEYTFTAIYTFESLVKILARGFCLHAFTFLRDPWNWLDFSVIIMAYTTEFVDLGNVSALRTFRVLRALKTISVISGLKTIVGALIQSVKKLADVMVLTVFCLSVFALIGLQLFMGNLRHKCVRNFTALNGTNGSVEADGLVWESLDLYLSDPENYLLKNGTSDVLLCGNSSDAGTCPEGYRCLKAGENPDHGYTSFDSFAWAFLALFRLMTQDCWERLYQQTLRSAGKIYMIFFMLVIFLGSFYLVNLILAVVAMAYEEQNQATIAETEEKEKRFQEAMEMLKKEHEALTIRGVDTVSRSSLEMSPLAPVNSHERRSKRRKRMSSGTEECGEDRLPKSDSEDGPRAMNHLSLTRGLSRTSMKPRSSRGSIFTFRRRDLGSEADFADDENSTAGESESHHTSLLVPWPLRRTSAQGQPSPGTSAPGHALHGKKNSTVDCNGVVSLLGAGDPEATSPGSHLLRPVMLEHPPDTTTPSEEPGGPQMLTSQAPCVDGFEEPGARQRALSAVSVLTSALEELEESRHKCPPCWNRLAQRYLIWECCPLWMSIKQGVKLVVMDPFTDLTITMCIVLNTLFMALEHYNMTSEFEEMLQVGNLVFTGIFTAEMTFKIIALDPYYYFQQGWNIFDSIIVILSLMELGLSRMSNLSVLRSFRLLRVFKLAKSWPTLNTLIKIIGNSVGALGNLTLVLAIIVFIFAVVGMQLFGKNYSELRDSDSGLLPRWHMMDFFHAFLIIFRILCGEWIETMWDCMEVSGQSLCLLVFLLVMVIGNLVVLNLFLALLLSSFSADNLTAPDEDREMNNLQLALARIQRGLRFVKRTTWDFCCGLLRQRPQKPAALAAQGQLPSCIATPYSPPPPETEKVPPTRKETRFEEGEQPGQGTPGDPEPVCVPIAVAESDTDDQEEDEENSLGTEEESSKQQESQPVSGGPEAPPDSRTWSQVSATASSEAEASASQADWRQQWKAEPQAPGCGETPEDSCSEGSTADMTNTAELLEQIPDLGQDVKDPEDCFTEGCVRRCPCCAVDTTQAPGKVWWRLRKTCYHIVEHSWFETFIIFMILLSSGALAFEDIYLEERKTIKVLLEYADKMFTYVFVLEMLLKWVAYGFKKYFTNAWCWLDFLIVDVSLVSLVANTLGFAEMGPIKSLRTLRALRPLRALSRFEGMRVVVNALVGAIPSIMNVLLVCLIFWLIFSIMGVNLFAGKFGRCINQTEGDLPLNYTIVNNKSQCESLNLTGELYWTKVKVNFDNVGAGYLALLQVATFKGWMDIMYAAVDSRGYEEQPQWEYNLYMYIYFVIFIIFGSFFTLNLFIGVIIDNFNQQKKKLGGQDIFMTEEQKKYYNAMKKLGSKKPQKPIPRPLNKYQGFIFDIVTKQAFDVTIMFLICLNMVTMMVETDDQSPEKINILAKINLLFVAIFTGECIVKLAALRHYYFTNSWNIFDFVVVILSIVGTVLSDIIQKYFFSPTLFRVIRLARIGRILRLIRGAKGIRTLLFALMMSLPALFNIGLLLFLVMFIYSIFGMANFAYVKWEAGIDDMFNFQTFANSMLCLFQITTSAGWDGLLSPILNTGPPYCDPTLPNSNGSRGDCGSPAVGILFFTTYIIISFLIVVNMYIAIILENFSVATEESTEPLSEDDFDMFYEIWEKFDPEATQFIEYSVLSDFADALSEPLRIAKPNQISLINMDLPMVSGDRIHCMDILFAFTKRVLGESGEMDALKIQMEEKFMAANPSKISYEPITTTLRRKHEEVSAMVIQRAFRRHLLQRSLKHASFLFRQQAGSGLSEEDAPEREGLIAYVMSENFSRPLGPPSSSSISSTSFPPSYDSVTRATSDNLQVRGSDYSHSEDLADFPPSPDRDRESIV

Structure (SMILES) | IC50 (human Nav1.5 [1]) [µM] | IC50 (human Nav1.5 [2]) [µM] | IC50 (human Nav1.5 [3]) [µM]
CC(O)(CS(N)(=O)=O)c1cccc(-c2ncn(Cc3cc(OC(F)(F)F)ccc3F)n2)n1 (racemic) [Rac-55 + 56, 2-(6-(1-(2-fluoro-5-(trifluoromethoxy)benzyl)-1H-1,2,4-triazol-3-yl)pyridin-2-yl)-2-hydroxypropane-1-sulfonamide] | 4.5 | > 30 | 17
CC(O)(CS(N)(=O)=O)c1ccc(Cl)c(-c2nnn(Cc3cc(OC(F)(F)F)ccc3F)n2)c1 (single isomer, unassigned) [Example 7, (R or S)-2-(4-chloro-3-(2-(2-fluoro-5-(trifluoromethoxy)benzyl)-2H-tetrazol-5-yl)phenyl)-2-hydroxypropane-1-sulfonamide] | 1.3 | 28 | 15
CC(O)(CS(N)(=O)=O)c1ccc(Cl)c(-c2nnn(Cc3cc(OC(F)(F)F)ccc3F)n2)c1 (single isomer, unassigned) [Example 8, (R or S)-2-(4-chloro-3-(2-(2-fluoro-5-(trifluoromethoxy)benzyl)-2H-tetrazol-5-yl)phenyl)-2-hydroxypropane-1-sulfonamide] | 1.3 | > 30 | 28
CC(O)(CS(N)(=O)=O)c1ccc(F)c(-c2nnn(Cc3cc(OC(F)(F)F)ccc3F)n2)c1 (single isomer, unassigned) [Example 9, (R or S)-2-(4-fluoro-3-(2-(2-fluoro-5-(trifluoromethoxy)benzyl)-2H-tetrazol-5-yl)phenyl)-2-hydroxypropane-1-sulfonamide] | 4.1 | > 30 | > 30
CC(O)(CS(N)(=O)=O)c1ccc(F)c(-c2nnn(Cc3cc(OC(F)(F)F)ccc3F)n2)c1 (single isomer, unassigned) [Example 10, (R or S)-2-(4-fluoro-3-(2-(2-fluoro-5-(trifluoromethoxy)benzyl)-2H-tetrazol-5-yl)phenyl)-2-hydroxypropane-1-sulfonamide] | 1 | > 30 | 11
CC(O)(CS(N)(=O)=O)c1cccc(-c2nnn(Cc3cc(OC(F)(F)F)ccc3F)n2)c1F (single isomer, unassigned) [Example 11, (R or S)-2-(2-fluoro-3-(2-(2-fluoro-5-(trifluoromethoxy)benzyl)-2H-tetrazol-5-yl)phenyl)-2-hydroxypropane-1-sulfonamide] | 1.7 | 8.9 | 5.6
CC(O)(CS(N)(=O)=O)c1cccc(-c2nnn(Cc3cc(OC(F)(F)F)ccc3F)n2)c1F (single isomer, unassigned) [Example 12, (R or S)-2-(2-fluoro-3-(2-(2-fluoro-5-(trifluoromethoxy)benzyl)-2H-tetrazol-5-yl)phenyl)-2-hydroxypropane-1-sulfonamide] | 4.2 | 10 | 5.2
CC(C(C)(O)c1cccc(-c2nnn(Cc3cc(OC(F)(F)F)ccc3F)n2)n1)S(N)(=O)=O (single isomer, unassigned) [Example 13, (2R or 2S, 3R or 3S)-3-(6-(2-(2-fluoro-5-(trifluoromethoxy)benzyl)-2H-tetrazol-5-yl)pyridin-2-yl)-3-hydroxybutane-2-sulfonamide] | 4.3 | 12 | > 30
CC(C(C)(O)c1cccc(-c2nnn(Cc3cc(OC(F)(F)F)ccc3F)n2)n1)S(N)(=O)=O (single isomer, unassigned) [Example 14, (2R or 2S,3R or 3S)-3-(6-(2-(2-fluoro-5-(trifluoromethoxy)benzyl)-2H-tetrazol-5-yl)pyridin-2-yl)-3-hydroxybutane-2-sulfonamide] | 4 | > 30 | 15
CC(C(C)(O)c1cccc(-c2nnn(Cc3cc(OC(F)(F)F)ccc3F)n2)n1)S(N)(=O)=O (single isomer, unassigned) [Example 15, (2R or 2S,3R or 3S)-3-(6-(2-(2-fluoro-5-(trifluoromethoxy)benzyl)-2H-tetrazol-5-yl)pyridin-2-yl)-3-hydroxybutane-2-sulfonamide] | 4.1 | > 30 | 24
CC(C(C)(O)c1cccc(-c2nnn(Cc3cc(OC(F)(F)F)ccc3F)n2)n1)S(N)(=O)=O (single isomer, unassigned) [Example 16, (2R or 2S, 3R or 3S)-3-(6-(2-(2-fluoro-5-(trifluoromethoxy)benzyl)-2H-tetrazol-5-yl)pyridin-2-yl)-3-hydroxybutane-2-sulfonamide] | 2.8 | 16 | 4.8
CC(O)(CS(N)(=O)=O)c1cc(F)cc(-c2nnn(Cc3cc(OC(F)(F)F)ccc3F)n2)c1 (single isomer, unassigned) [Example 23, (R or S)-2-(3-fluoro-5-(2-(2-fluoro-5-(trifluoromethoxy)benzyl)-2H-tetrazol-5-yl)phenyl)-2-hydroxypropane-1-sulfonamide] | 5.6 | > 30 | > 30
CC(O)(CS(N)(=O)=O)c1cc(F)cc(-c2nnn(Cc3cc(OC(F)(F)F)ccc3F)n2)c1 (single isomer, unassigned) [Example 24, (R or S)-2-(3-fluoro-5-(2-(2-fluoro-5-(trifluoromethoxy)benzyl)-2H-tetrazol-5-yl)phenyl)-2-hydroxypropane-1-sulfonamide] | 2 | > 30 | 7.8
CC(O)(CS(N)(=O)=O)c1cccc(-c2nnn(Cc3cccc(C(F)(F)F)c3)n2)n1 (single isomer, unassigned) [Example 40, (R or S)-2-hydroxy-2-(6-(2-(3-(trifluoromethyl)benzyl)-2H-tetrazol-5-yl)pyridin-2-yl)propane-1-sulfonamide] | 21 | > 30 | –
CC(O)(CS(N)(=O)=O)c1cccc(-c2nnn(Cc3cccc(C(F)(F)F)c3)n2)n1 (single isomer, unassigned) [Example 41, (R or S)-2-hydroxy-2-(6-(2-(3-(trifluoromethyl)benzyl)-2H-tetrazol-5-yl)pyridin-2-yl)propane-1-sulfonamide] | > 30 | > 30 | –
CC(C(O)c1cccc(-c2nnn(Cc3cc(OC(F)(F)F)ccc3F)n2)n1)S(N)(=O)=O (single isomer, unassigned) [Example 51, (JR or 1S,2R or 2S)-1-(6-(2-(2-fluoro-5-(trifluoromethoxy)benzyl)-2H-tetrazol-5-yl)pyridin-2-yl)-1-hydroxypropane-2-sulfonamide] | 25 | > 30 | –
CC(O)(CS(N)(=O)=O)c1cccc(-c2ncn(Cc3cc(OC(F)(F)F)ccc3F)n2)n1 (single isomer, unassigned) [Example 55, (R or S)-2-(6-(1-(2-fluoro-5-(trifluoromethoxy)benzyl)-1H-1,2,4-triazol-3-yl)pyridin-2-yl)-2-hydroxypropane-1-sulfonamide] | 19 | > 30 | –
CC(O)(CS(N)(=O)=O)c1cccc(-c2ncn(Cc3cc(OC(F)(F)F)ccc3F)n2)n1 (single isomer, unassigned) [Example 56, (R or S)-2-(6-(1-(2-fluoro-5-(trifluoromethoxy)benzyl)-1H-1,2,4-triazol-3-yl)pyridin-2-yl)-2-hydroxypropane-1-sulfonamide] | 16 | > 30 | –
